The record followed here is patent US11479551B2, “MTA-cooperative PRMT5 inhibitors” (Mirati Therapeutics, Inc., priority 2019, dated 2022).

For one experiment, the target named is PRMT5/MEP50 complex (Homo sapiens (Human), UniProt O14744). Put plainly: PRMT5:MEP50 HotSpot Assay (full-length histone H2A substrate, plus and minus MTA). The experiment is classed as biochemical. As to conditions: IC50 + 2 μM MTA, in the presence of 2 μM MTA. A digest of the protocol:
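Tritium incorporated into recombinant full-length histone H2A was counted by scintillation after stopped reactions were captured on filter paper.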

Experiment [1] relates to PRMT5-dependent Symmetric Di-methyl Arginine signal in HCT116 homozygous MTAP knockout cells. As to the kind of experiment: SYM11 In-Cell Western, HCT116 MTAP knockout. The experiment is classed as cell-based. As to conditions: HCT116 homozygous MTAP knockout cells, 4 days of treatment, SYM11/DRAQ5 ratio, read-out: In-cell-Western (SYM11) HCT116 MTAP_KO IC50. The protocol: (§1) 1. HCT116 MTAP Knockout Model
(§2) HCT116 cells were genetically engineered to knock out the function of both MTAP alleles using a CRISPR/Cas9 system and an sgRNA targeting the MTAP gene. Following Cas9/MTAP sgRNA transduction, clones were screened to confirm that each allele of the MTAP gene had been inactivated (i.e., homozygous MTAP knock out) creating an MTAP-deficient cell.
(§3) Control samples were analyzed in parallel.
Briefly, on Day 0, 2,000 HCT116 parental or HCT116 homozygous MTAP knockout cells were seeded in 96 well plates in McCoy's 5A supplemented with 10% fetal bovine serum and pen/strep and the cells were incubated overnight at 37° C. plus 5% CO2. The following day, cells were treated with DMSO vehicle control or a dose response of PRMT5 inhibitors, and incubated at 37° C. plus 5% CO^2 for four days.
After 4 days of treatment, the cells were fixed by adding 50 μl of 4% paraformaldehyde solution to each well and the cells were incubated for 20 min at room temperature. The paraformaldehyde solution was removed, 150 μl of ice-cold methanol was added and the plate was placed −20° C. for 10 minutes. The methanol was removed, 150 μl of Odyssey Blocking buffer+0.05% Tween20 was added and the plate was incubated at room temperature with shaking for one hour.
The primary SYM11 antibody solution was removed by aspiration and the wells were washed three consecutive times with phosphate buffered saline containing 0.1% Tween-20 (PBST).
The secondary antibody solution was removed by aspiration and the wells were washed three consecutive times with PB ST.
The SYM11 signal and the DRAQ5 signal were quantified using a Li-Cor Odyssey machine reading at […], respectively. The SYM11/DRAQ5 ratio was used to calculate the inhibition of Symmetric Dimethyl Arginine as percent of DMSO control.

For experiment [2], the system named is HCT116 homozygous MTAP knockout cells. As to the kind of experiment: Proliferation assay (CellTiter-Glo, 10 days of treatment), HCT116 MTAP knockout. The experiment is classed as cell-based. As to conditions: read-out: Proliferation HCT116MTAP_KO IC50. As for the experimental part: as §1, §2, §3
Briefly, on Day 0, 250 HCT116 parental or HCT116 homozygous MTAP knockout cell were seeded in 96 well plates in McCoy's 5A supplemented with 10% fetal bovine serum and pen/strep and the cells were incubated overnight at 37° C. plus 5% CO2.
The following day, cells were treated with DMSO vehicle control or a dose response of PRMT5 inhibitors and incubated at 37 C plus 5% CO2 for five days. On Day 6, the cells were trypsinized and split 1:10 into new 96-well plates with fresh medium containing the same concentration of PRMT5 inhibitor and incubated for an additional 5 days at 37° C. plus 5% CO^2.
On Day 11, the viability of the cells was measured using a CTG assay kit (CellTiter-Glo; Promega cat.no G7573) in accordance with the manufacturer's instructions. The IC50 values for each compound after 10 days of treatment were calculated using GraphPad PRISM software.

Like-named read-outs stand apart in the source and are kept apart here.

PRMT5/MEP50 complex, sequence (O14744 2-637): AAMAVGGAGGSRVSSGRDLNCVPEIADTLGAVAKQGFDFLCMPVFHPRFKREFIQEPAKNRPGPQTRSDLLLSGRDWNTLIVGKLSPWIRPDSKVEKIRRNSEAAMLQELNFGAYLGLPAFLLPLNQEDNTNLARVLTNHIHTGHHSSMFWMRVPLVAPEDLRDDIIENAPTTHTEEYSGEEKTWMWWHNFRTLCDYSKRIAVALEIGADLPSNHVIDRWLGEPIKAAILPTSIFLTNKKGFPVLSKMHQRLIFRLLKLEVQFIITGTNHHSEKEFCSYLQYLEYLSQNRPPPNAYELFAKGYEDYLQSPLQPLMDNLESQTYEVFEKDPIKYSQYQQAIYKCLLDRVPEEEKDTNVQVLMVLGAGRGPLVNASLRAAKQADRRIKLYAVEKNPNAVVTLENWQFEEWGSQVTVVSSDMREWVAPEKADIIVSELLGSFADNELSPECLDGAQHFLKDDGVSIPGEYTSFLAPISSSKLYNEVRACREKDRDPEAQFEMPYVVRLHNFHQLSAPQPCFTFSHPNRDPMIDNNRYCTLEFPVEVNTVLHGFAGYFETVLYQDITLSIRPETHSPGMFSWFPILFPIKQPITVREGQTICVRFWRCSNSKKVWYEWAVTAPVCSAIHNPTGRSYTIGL
PRMT5/MEP50 complex, sequence (Q9BQA1 2-342 partner): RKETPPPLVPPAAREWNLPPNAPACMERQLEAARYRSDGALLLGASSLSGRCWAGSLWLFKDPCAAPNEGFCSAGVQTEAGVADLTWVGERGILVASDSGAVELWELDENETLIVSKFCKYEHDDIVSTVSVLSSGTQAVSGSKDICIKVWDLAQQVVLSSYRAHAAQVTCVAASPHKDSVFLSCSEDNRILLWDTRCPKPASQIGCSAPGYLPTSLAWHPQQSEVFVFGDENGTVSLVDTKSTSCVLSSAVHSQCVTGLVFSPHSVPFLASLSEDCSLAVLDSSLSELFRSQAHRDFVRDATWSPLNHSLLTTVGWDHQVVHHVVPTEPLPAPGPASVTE

For the molecule `Cn1ncc(-c2c(-c3ccc4c(=O)[nH]nc(CN)c4c3)cnn2C)c1Cl` [Example 4-185, 4-(aminomethyl)-6-(5′-chloro-1′,2-dimethyl-1′H,2H-[3,4′-bipyrazol]-4-yl)phthalazin-1(2H)-one], the IC50 on PRMT5/MEP50 complex turned out to be 1160 nM; in experiment [1] (Homo sapiens, HCT-116, 96 h), 167 nM; in experiment [2] (Homo sapiens, HCT-116, 240 h), 3020 nM.

As to `Cn1ncc(-c2c(-c3ccc4c(=O)[nH]nc(CN)c4c3)cnn2C)c1C#N` [Example 4-186, 4-(4-(aminomethyl)-1-oxo-1,2-dihydrophthalazin-6-yl)-1′,2-dimethyl-1′H,2H-[3,4′-bipyrazole]-5′-carbonitrile], the IC50 at PRMT5/MEP50 complex worked out at 2310 nM; in experiment [1] (Homo sapiens, HCT-116, 96 h), 5110 nM; in experiment [2] (Homo sapiens, HCT-116, 240 h), 5780 nM.

Regarding `Cn1ncc(-c2ccc3c(=O)[nH]nc(CN)c3c2)c1-c1cccc2c1COC2` [Example 4-220, 4-(aminomethyl)-6-(5-(1,3-dihydroisobenzofuran-4-yl)-1-methyl-1H-pyrazol-4-yl)phthalazin-1(2H)-one], the IC50 on PRMT5/MEP50 complex is 567 nM; in experiment [1] (Homo sapiens, HCT-116, 96 h) it was 212 nM; in experiment [2] (Homo sapiens, HCT-116, 240 h) it was 5160 nM.

With `Cn1ncc(-c2ccc3c(=O)[nH]nc(CN)c3c2)c1-c1ccc(OC2CC2)c2cncn12` [Example 4-238, 4-(aminomethyl)-6-(5-(8-cyclopropoxyimidazo[1,5-a]pyridin-5-yl)-1-methyl-1H-pyrazol-4-yl)phthalazin-1(2H)-one], the IC50 at PRMT5/MEP50 complex came out at 2310 nM; in experiment [1] (Homo sapiens, HCT-116, 96 h), 843 nM; in experiment [2] (Homo sapiens, HCT-116, 240 h), 1940 nM.

On to `Cn1ncc(-c2ccc3c(=O)[nH]nc(CN)c3c2)c1-c1cc(-c2cnsc2)ccc1C#N` [Example 12-7, 2-(4-(4-(aminomethyl)-1-oxo-1,2-dihydrophthalazin-6-yl)-1-methyl-1H-pyrazol-5-yl)-4-(isothiazol-4-yl)benzonitrile], for which the IC50 was determined as 603 nM at PRMT5/MEP50 complex; 427 nM in experiment [1] (Homo sapiens, HCT-116, 96 h); 4980 nM in experiment [2] (Homo sapiens, HCT-116, 240 h).

For `Cn1ncc(-c2ccc3c(=O)[nH]nc(CN)c3c2)c1-c1cc(C2CCOC2)ccc1C#N` (stereo not shown) [Example 12-8, 2-[4-[4-(aminomethyl)-1-oxo-2H-phthalazin-6-yl]-2-methyl-pyrazol-3-yl]-4-THF-3-yl-benzonitrile], the IC50 at PRMT5/MEP50 complex was determined as 3860 nM; in experiment [1] (Homo sapiens, HCT-116, 96 h), 2860 nM; in experiment [2] (Homo sapiens, HCT-116, 240 h), 7800 nM.

As to `NCc1n[nH]c(=O)c2ccc(-c3cnc4ccc(-c5ccccc5)nn34)cc12` [Example 4-191, 4-(aminomethyl)-6-(6-phenylimidazo[1,2-b]pyridazin-3-yl)phthalazin-1(2H)-one], the IC50 at PRMT5/MEP50 complex was found to be 612 nM; in experiment [1] (Homo sapiens, HCT-116, 96 h), 911 nM; in experiment [2] (Homo sapiens, HCT-116, 240 h), 1520 nM.

As to `Cn1ncc(-c2ccc3c(=O)[nH]nc(CN)c3c2)c1-c1ccc(-c2cnsc2)cc1C#N` [Example 12-4, 2-[4-[4-(aminomethyl)-1-oxo-2H-phthalazin-6-yl]-2-methyl-pyrazol-3-yl]-5-isothiazol-4-yl-benzonitrile], the IC50 at PRMT5/MEP50 complex was 176 nM; in experiment [1] (Homo sapiens, HCT-116, 96 h), 436 nM; in experiment [2] (Homo sapiens, HCT-116, 240 h) it was 4370 nM.

Regarding `Cn1ncc(-c2ccc3c(=O)[nH]nc([C@@H](N)C(F)F)c3c2)c1-c1ccc2ccccc2c1C#N` [Example 9-7, 2-[4-[4-[(1R)-1-amino-2,2-difluoro-ethyl]-1-oxo-2H-phthalazin-6-yl]-2-methyl-pyrazol-3-yl]naphthalene-1-carbonitrile], the IC50 at PRMT5/MEP50 complex was 2560 nM; in experiment [1] (Homo sapiens, HCT-116, 96 h), over 1000 nM; in experiment [2] (Homo sapiens, HCT-116, 240 h), over 10000 nM.

On to `CCOc1cc(-c2cnn(C)c2-c2c(F)cc3ccccc3c2C#N)cc2c(CN)n[nH]c(=O)c12` (single isomer, unassigned) [Example 16-3, 2-[4-[4-(aminomethyl)-8-ethoxy-1-oxo-2H-phthalazin-6-yl]-2-methyl-pyrazol-3-yl]-3-fluoro-naphthalene-1-carbonitrile], for which the IC50 in experiment [1] (Homo sapiens, HCT-116, 96 h) stood at 15 nM; in experiment [2] it was 84 nM.

Take `Cn1ncc(-c2ccc3c(=O)[nH]nc(CN)c3c2)c1-c1cn(-c2ccccc2)nc1C#N` [Example 4-214, 4-(4-(aminomethyl)-1-oxo-1,2-dihydrophthalazin-6-yl)-2-methyl-11-phenyl-1′H,2H-[3,4′-bipyrazole]-3′-carbonitrile]: the IC50 in experiment [1] (Homo sapiens, HCT-116, 96 h) is over 10000 nM; in experiment [2] (Homo sapiens, HCT-116, 240 h), 4400 nM.

For `Cn1ncc(-c2ccc3c(=O)[nH]nc(CN)c3c2)c1-c1c(F)ccc(OC2CC2)c1C#N` [Example 4-251, 2-(4-(4-(aminomethyl)-1-oxo-1,2-dihydrophthalazin-6-yl)-1-methyl-1H-pyrazol-5-yl)-6-cyclopropoxy-3-fluorobenzonitrile], the IC50 in experiment [1] (Homo sapiens, HCT-116, 96 h) amounted to 8 nM; in experiment [2] (Homo sapiens, HCT-116, 240 h), 49 nM.

Consider `Cn1ncc(-c2ccc3c(=O)[nH]nc(CN)c3c2)c1-c1ccc2c(c1C#N)OCCC2` [Example 4-226, 7-(4-(4-(aminomethyl)-1-oxo-1,2-dihydrophthalazin-6-yl)-1-methyl-1H-pyrazol-5-yl)chromane-8-carbonitrile], for which the IC50 in experiment [1] (Homo sapiens, HCT-116, 96 h) amounted to 10 nM; in experiment [2] (Homo sapiens, HCT-116, 240 h), 191 nM.

For `CCc1cc(-c2cnn(C)c2-c2cccc(OC3CC3)c2C#N)cc2c(CN)n[nH]c(=O)c12` [Example 15-2, 2-(4-(4-(aminomethyl)-8-ethyl-1-oxo-1,2-dihydrophthalazin-6-yl)-1-methyl-1H-pyrazol-5-yl)-6-cyclopropoxybenzonitrile], the IC50 in experiment [1] (Homo sapiens, HCT-116, 96 h) came to 96 nM; in experiment [2] (Homo sapiens, HCT-116, 240 h), 211 nM.

With `Cn1cc2c(C#N)c(-c3c(-c4ccc5c(=O)[nH]nc(CN)c5c4)cnn3C)ccc2n1` [Example 4-248, 5-(4-(4-(aminomethyl)-1-oxo-1,2-dihydrophthalazin-6-yl)-1-methyl-1H-pyrazol-5-yl)-2-methyl-2H-indazole-4-carbonitrile], the IC50 in experiment [1] (Homo sapiens, HCT-116, 96 h) was over 1000 nM; in experiment [2] (Homo sapiens, HCT-116, 240 h), 1160 nM.

With `Cc1cc(OC2CC2)c(C#N)c(-c2c(-c3cc(Cl)c4c(=O)[nH]nc(CN)c4c3)cnn2C)c1` [Example 10-19, 2-(4-(4-(aminomethyl)-8-chloro-1-oxo-1,2-dihydrophthalazin-6-yl)-1-methyl-1H-pyrazol-5-yl)-6-cyclopropoxy-4-methylbenzonitrile], the IC50 in experiment [1] (Homo sapiens, HCT-116, 96 h) was found to be 185 nM; in experiment [2] (Homo sapiens, HCT-116, 240 h), 312 nM.

Turning to `Cn1ncc(-c2ccc3c(=O)[nH]nc(CN)c3c2)c1-c1cc(Cl)cc(OC(F)F)c1C#N` [Example 4-243, 2-(4-(4-(aminomethyl)-1-oxo-1,2-dihydrophthalazin-6-yl)-1-methyl-1H-pyrazol-5-yl)-4-chloro-6-(difluoromethoxy)benzonitrile], the IC50 in experiment [1] (Homo sapiens, HCT-116, 96 h) came out at 51 nM; in experiment [2] (Homo sapiens, HCT-116, 240 h), 285 nM.

For `CCOc1cc(-c2cnn(C)c2-c2c(F)cc3ccccc3c2C#N)cc2c(CN)n[nH]c(=O)c12` (single isomer, unassigned) [Example 16-4, 2-[4-[4-(aminomethyl)-8-ethoxy-1-oxo-2H-phthalazin-6-yl]-2-methyl-pyrazol-3-yl]-3-fluoro-naphthalene-1-carbonitrile], the IC50 in experiment [1] stood at 12 nM; in experiment [2], 15 nM.

Turning to `Cn1ncc(-c2ccc3c(=O)[nH]nc(CN)c3c2)c1-c1cnn(Cc2cccn(C)c2=O)c1Cl` [Example 4-236, 4-(aminomethyl)-6-(5′-chloro-2-methyl-1′-((1-methyl-2-oxo-1,2-dihydropyridin-3-yl)methyl)-1′H,2H-[3,4′-bipyrazol]-4-yl)phthalazin-1(2H)-one], the IC50 in experiment [1] (Homo sapiens, HCT-116, 96 h) is over 1000 nM; in experiment [2] (Homo sapiens, HCT-116, 240 h), over 1000 nM.

Regarding `Cn1ncc(-c2ccc3c(=O)[nH]nc(CN)c3c2)c1-c1cnn(Cc2ccccc2)c1C#N` [Example 4-211, 4-(4-(aminomethyl)-1-oxo-1,2-dihydrophthalazin-6-yl)-1′-benzyl-2-methyl-1′H,2H-[3,4′-bipyrazole]-5′-carbonitrile], the IC50 in experiment [1] (Homo sapiens, HCT-116, 96 h) came out at 197 nM; in experiment [2] (Homo sapiens, HCT-116, 240 h), 2150 nM.
